Reference: US12559529B2, “NPY2 receptor agonists” (Boehringer Ingelheim International GmbH, priority 2019, dated 2026)

Target: T1, Human Neuropeptide Y2 Receptor (Homo sapiens, UniProt P49146)
T1 construct: purchased CHEMICON HTS066M
T1 sequence (P49146 1-381): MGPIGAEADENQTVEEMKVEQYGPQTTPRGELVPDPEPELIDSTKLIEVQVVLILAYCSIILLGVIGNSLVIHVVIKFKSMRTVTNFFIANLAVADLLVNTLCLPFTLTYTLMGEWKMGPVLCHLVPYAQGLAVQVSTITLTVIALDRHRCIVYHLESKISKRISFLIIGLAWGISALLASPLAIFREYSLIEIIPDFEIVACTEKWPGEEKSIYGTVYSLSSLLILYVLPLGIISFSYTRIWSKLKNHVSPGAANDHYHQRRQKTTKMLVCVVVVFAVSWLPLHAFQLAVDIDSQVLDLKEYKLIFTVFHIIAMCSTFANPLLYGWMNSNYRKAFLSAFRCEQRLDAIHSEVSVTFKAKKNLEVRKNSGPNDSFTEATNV
Experiment: Radioligand binding competition assay (RLB)
Conditions: Table 3; human 125I-PYY (1-36) 0.02 nM, Y2 receptor membranes; read-out: Ki
Procedure, shortened: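 IC50 values come from nonlinear regression of sigmoidal dose-response curves of filter-bound radioactivity. Peptides competed with radioligand at human Y2 receptor membranes (0.5 μg protein/well) for 2 h at room temperature in pH 7.4 HEPES buffer containing Mg2+, Ca2+ and 0.2% ovalbumin.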

SMILES	Ki [nM]
CC[C@H](C)[C@H](NC(=O)[C@H](CCC(=O)O)NC(=O)[C@H](CCC(=O)O)NC(=O)[C@@H]1CCCN1C(=O)[C@H](CO)NC(=O)[C@H](C)NC(=O)[C@H](CC(=O)O)NC(=O)[C@H](CCC(=O)O)NC(=O)[C@H](CCC(=O)O)NC(=O)[C@@H]1CCCN1C(=O)[C@H](CCCCNC(=O)COCCOCCNC(=O)COCCOCCNC(=O)CC[C@H](NC(=O)CCCCCCCCCCCCCCCCC(=O)O)C(=O)O)NC(=O)[C@H](CCC(=O)O)NC(=O)[C@@H]1CCCN1C(=O)[C@H](C)NC(=O)CC(C)C)C(=O)N[C@@H](CCC(N)=O)C(=O)N[C@@H](CCCNC(=N)N)C(=O)N[C@@H](Cc1ccc(O)cc1)C(=O)N[C@@H](Cc1ccc(O)cc1)C(=O)N[C@H](C(=O)N[C@@H](CCC(=O)O)C(=O)N[C@@H](CC(C)C)C(=O)N[C@@H](CCCNC(=N)N)C(=O)N[C@@H](Cc1c[nH]cn1)C(=O)N[C@@H](Cc1ccc(O)cc1)C(=O)N[C@@H](Cc1ccc(O)cc1)C(=O)N[C@@H](CC(N)=O)C(=O)N[C@@H](Cc1c[nH]c2ccccc12)C(=O)N[C@@H](CC(C)C)C(=O)N[C@H](C(=O)N[C@@H](CCCNC(=N)N)C(=O)N[C@@H](CCC(N)=O)C(=O)N[C@@H](CCCNC(=N)N)C(=O)N[C@@H](Cc1ccc(O)cc1)C(N)=O)[C@@H](C)O)[C@@H](C)O [Compound 134, N{alpha-4}-(3-methylbutanoyl)-N{epsilon-7}-[2-(2-{2-[2-(2-{2-[(4S)-4-carboxy-4-(17-carboxyheptadecanamido)butanamido]ethoxy}ethoxy)acetamido]ethoxy}ethoxy)acetamido]-[4A,7K,9E,17I,18Q,22T,23E,28Y,30W,31L]hPYY (4-36)]	1.17
CC(C)CC(=O)N[C@@H](C)C(=O)N1CCC[C@H]1C(=O)N[C@@H](CCC(=O)O)C(=O)N[C@@H](CCCCNC(=O)COCCOCCNC(=O)COCCOCCNC(=O)CC[C@H](NC(=O)CCCCCCCCCCCCCCCCC(=O)O)C(=O)O)C(=O)N1CCC[C@H]1C(=O)N[C@@H](CCC(=O)O)C(=O)N[C@@H](C)C(=O)N[C@@H](CC(=O)O)C(=O)N[C@@H](C)C(=O)N[C@@H](CO)C(=O)N1CCC[C@H]1C(=O)N[C@@H](CCC(=O)O)C(=O)N[C@@H](CCC(=O)O)C(=O)N[C@@H](CC(C)C)C(=O)N[C@@H](CCC(N)=O)C(=O)N[C@@H](CCCNC(=N)N)C(=O)N[C@@H](Cc1ccc(O)cc1)C(=O)N[C@@H](Cc1ccc(O)cc1)C(=O)N[C@H](C(=O)N[C@@H](CCC(=O)O)C(=O)N[C@@H](CC(C)C)C(=O)N[C@@H](CCCNC(=N)N)C(=O)N[C@@H](Cc1c[nH]cn1)C(=O)N[C@@H](Cc1ccc(O)cc1)C(=O)N[C@@H](Cc1ccc(O)cc1)C(=O)N[C@@H](CC(N)=O)C(=O)N[C@@H](Cc1c[nH]c2ccccc12)C(=O)N[C@@H](CC(C)C)C(=O)N[C@H](C(=O)N[C@@H](CCCNC(=N)N)C(=O)N[C@@H](CCC(N)=O)C(=O)N[C@@H](CCCNC(=N)N)C(=O)N[C@@H](Cc1ccc(O)cc1)C(N)=O)[C@@H](C)O)C(C)C [Compound 135, N{alpha-4}-(3-methylbutanoyl)-N{epsilon-7}-[2-(2-{2-[2-(2-{2-[(4S)-4-carboxy-4-(17-carboxyheptadecanamido)butanamido]ethoxy}ethoxy)acetamido]ethoxy}ethoxy)acetamido]-[4A,7K,9E,10A,18Q,22V,23E,28Y,30W,31L]hPYY (4-36)]	1.31
